The subject of one experiment is calcineurin. Kind of experiment: Calcineurin phosphatase assay in T cell extracts (okadaic acid resistant, EGTA-sensitive phosphatase activity). In kind it is biochemical, mouse. How it is done:
Spleen and lymph nodes were harvested from wild type and mutant mice and were dispersed into single cell suspension. Red blood cells were removed by lysis. The final concentrations were adjusted to 1.5-2.0×10^8 cells suspended in 2 ml of PBS containing 5% fetal calf serum and 4 mM EDTA. The cell suspensions were enriched for T cells using Mouse T Cell Enrichment Column (R&D Systems). T cells were then lysed with lysis buffer containing 50 mM Tris-HCl, pH 7.5, 15% glycerol, 0.1 mM EGTA, 1 mM EDTA, 0.5 mM DTT, […] PMSF, 50 μg/ml soybean trypsin inhibitor, 5 μg/ml aprotinin, 5 μg/ml leupeptin. Aliquots of 8×10^6 cells per 50 μl of lysis buffer were frozen until further analysis.
The phosphatase assay is a modified version of a previously described procedure (Manalan and Klee, 1983; Liu, 1991). The reaction mixture (total volume 60 μl) contained 50 mM MES (pH6.0), 100 mM NaCl, 6 mM Mg(OAc)2, […], […] (Fraction V), […] okadaic acid (Calbiochem), […] [^33P] RII peptide (600 cpm/pmole), and T cell or brain extract. […] of the terminated reaction mixture was applied per well, washed and counted in a Top-Count scintillation counter (Packard Instrument Co.). […]
Residual calcineurin activity, (i.e., okadaic acid resistant and EGTA-sensitive phosphatase activity) was measured in the same CNAα^−/− T cell extracts (Martin and Wiederrecht, in press). […]

The next experiment concerns T cells. Description: Mitogenic stimulation of T cells: proliferation and IL-2 and IL-4 production, drug sensitivity. Format: cell-based, mouse. From the text: We tested the responses of the wild type and mutant T cells to mitogenic stimulation with phorbol 12-myristate 13 acetate (PMA) plus ionomycin, concanavalin A (ConA), and anti-CD3ε antibodies. All three mitogens induced the CNAα^−/− T cells to proliferate as rapidly as the wild type T-cells. Further, stimulated mutant and wild type T cells produced the same amounts of IL-2 and IL-4 and expressed normal level of IL-2 receptor on the surface. Thus, CNAα^−/− T cells appeared to be functional when stimulated by mitogens in vitro.
We tested the drug sensitivity of the CNAα^−/− T cells. […] CNA^−/− T cells were even more sensitive to these drugs than normal T cells, with a IC50 of 2-7 fold lower than that of the wild type T cells.

FK506: in the experiment with calcineurin (CNAα−/− mutant T cell extracts), the “inhibition of (residual) calcineurin phosphatase activity” value is reported as 90-95%. Besides, the “inhibition of calcineurin phosphatase activity” value in the experiment with calcineurin (wild type T cell extracts) is listed as 90-95%. Also, the “proliferation and lymphokine production of CNAα−/− T cells, inhibitability” value in the experiment on T cells (CNAα−/− T cells) is recorded as “fully inhibitable”. Further, the “inhibition of T cells as measured by proliferation and by IL-2 and IL-4 production” value with T cells (CNAα−/− and wild type T cells stimulated with PMA plus ionomycin, ConA, or αCD3ε antibody) is on record as “inhibited”.
